Tested on: HeLa cell
Experiment: Cell penetration of pep(CPP)-FITC conjugate in HeLa cell line, flow cytometry (FACS)
Type: cell-based, Homo sapiens
Settings: HeLa cells, 20 uM FITC-fused peptide, 37° C. for an hour, control = FITC only
Protocol: Homo sapiens cervix adenocarcinoma cell line as HeLa cell lines were purchased from ATCC (American Type Cell Culture). The cells were cultured in MEM supplemented with 10% fetal bovine serum (Invitrogen, USA), Earle's salts, non-essential amino acids, sodium pyruvate and 100 μg/ml penicillin and 10 units/ml streptomycin and cultured at 37° C., 5% CO2 incubator.
Flow cytometry and Confocal microscope analysis were performed to compare the between degree of cellular uptake of the cells were treated with SEQ ID NO: 2 to SEQ ID NO: 178, pep (CPP) and control.
The cell line was divided in a 6-well plate and cultured in a medium containing 10% fetal bovine serum (Invitrogen, USA), 100 μg/ml penicillin, 100 units/ml streptomycin at 37° C. 5% CO2 incubator for 12 hours. After washing the cell line with PBS, starvation was induced in a Minimum Essential Medium for an hour. 20 uM of each carrier peptide was treated and cultured at 37° C. for an hour. After repeating the step of washing the cells with PBS for three times, Trypsin-EDTA was treated form 10 mins at 37° C. to separate the carrier peptide on the outside of the cell. cells were collected with refrigerated PBS and centrifugation was performed to repeat the step of washing the cells for three times. After then, the cells were suspended in 0.5 ml of PBS containing 4% Paraformaldehyde and fluorescence of the cells was analyzed using FACS Calibur (Becton Dickinson). The cellular uptake aspect of control and various peptides combined with FITC was compared and analyzed by MFI (Mean Fluorescence Intensity).
Analysis results shown in FIGS. 2 to 29 are given in detail in Table 7 below.

Row | Substance | cellular uptake, MFI (Mean Fluorescence Intensity)
1 | AEVRQHREARPALLTSRLRFIPK (listed as Homo sapiens) [Pep-RIA-7] | 16.49 ± 1.35
2 | AEVRQHREARPALLTSRLRFIPKP (listed as Homo sapiens) [Pep-RIA-51] | 15.13 ± 1.03
3 | AEVRQHREARPALLTSRLRFIPKPD (listed as Homo sapiens) [Pep-RIA-52] | 15.49 ± 0.29
4 | AEVRQHREARPALLTSRLRFIPKPDG (listed as Homo sapiens) [Pep-RIA-53] | 15.85 ± 0.74
5 | AEVRQHREARPALLTSRLRFIPKPDGL (listed as Homo sapiens) [Pep-RIA-54] | 13.71 ± 0.11
6 | AEVRQHREARPALLTSRLRFIPKPDGLR (listed as Homo sapiens) [Pep-RIA-55] | 18.75 ± 1.51
7 | AEVRQHREARPALLTSRLRFIPKPDGLRPI (listed as Homo sapiens) [Pep-RIA-57] | 16.75 ± 0.48
8 | ALL (listed as Homo sapiens) [Pep-RIA-145] | 13.85 ± 0.38
9 | ALLT (listed as Homo sapiens) [Pep-RIA-144] | 14.54 ± 0.21
10 | ALLTS (listed as Homo sapiens) [Pep-RIA-143] | 13.24 ± 0.37
11 | ALLTSR (listed as Homo sapiens) [Pep-RIA-142] | 13.23 ± 0.57
12 | ALLTSRLR (listed as Homo sapiens) [Pep-RIA-107] | 16.41 ± 1.36
13 | ALLTSRLRF (listed as Homo sapiens) [Pep-RIA-140] | 21.18 ± 0.11
14 | ALLTSRLRFIP (listed as Homo sapiens) [Pep-RIA-139] | 34.19 ± 1.43
15 | ALLTSRLRFIPK (listed as Homo sapiens) [Pep-RIA-94] | 21.07 ± 1.56
16 | ARP (listed as Homo sapiens) [Pep-RIA-120] | 10.04 ± 0.53
17 | ARPA (listed as Homo sapiens) [Pep-RIA-119] | 11.19 ± 0.61
18 | ARPAL (listed as Homo sapiens) [Pep-RIA-118] | 11.41 ± 1.03
19 | ARPALL (listed as Homo sapiens) [Pep-RIA-117] | 15.06 ± 0.58
20 | ARPALLT (listed as Homo sapiens) [Pep-RIA-116] | 11.32 ± 0.99
21 | ARPALLTS (listed as Homo sapiens) [Pep-RIA-115] | 12.13 ± 0.34
22 | ARPALLTSRL (listed as Homo sapiens) [Pep-RIA-113] | 11.54 ± 1.57
23 | ARPALLTSRLR (listed as Homo sapiens) [Pep-RIA-112] | 15.96 ± 1.24
24 | ARPALLTSRLRF (listed as Homo sapiens) [Pep-RIA-111] | 20.53 ± 0.21
25 | ARPALLTSRLRFI (listed as Homo sapiens) [Pep-RIA-110] | 11.89 ± 0.68
26 | ARPALLTSRLRFIP (listed as Homo sapiens) [Pep-RIA-104] | 22.51 ± 0.96
27 | ARPALLTSRLRFIPK (listed as Homo sapiens) [Pep-RIA-91] | 19.96 ± 0.51
28 | EAEVRQHREARPALLTSRLRFIPK (listed as Homo sapiens) [Pep-RIA-8] | 14.12 ± 0.79

— patent US11844845B2, “Cell penetrating peptide, conjugate comprising same, and composition comprising conjugate” (GEMVAX & KAEL CO., LTD., priority 2012, dated 2023)
